Laboratory results: ChEMBL document CHEMBL1275542, “Characterization of TolC efflux pump proteins from Pasteurella multocida” (2008)
Converted amounts (≈) assume the structure as drawn.

Tests used:
Assay type in all cases: functional
Pasteurella multocida [1] = assay: Antibacterial activity against Pasteurella multocida AL435 after 24 hrs by broth dilution method
Pasteurella multocida [2] = assay: Antibacterial activity against TolC deficient Pasteurella multocida pm0527 after 24 hrs by broth dilution method
Pasteurella multocida [3] = assay: Antibacterial activity against Pasteurella multocida pm0527 after 24 hrs by broth dilution method
Pasteurella multocida [4] = assay: Ratio of MIC for Pasteurella multocida AL435 to MIC for TolC deficient Pasteurella multocida pm0527
Pasteurella multocida [5] = assay: Antibacterial activity against TolC deficient Pasteurella multocida pm1980 after 24 hrs by broth dilution method
Pasteurella multocida [6] = assay: Antibacterial activity against Pasteurella multocida pm1980 after 24 hrs by broth dilution method
Pasteurella multocida [7] = assay: Ratio of MIC for Pasteurella multocida AL435 to MIC for TolC deficient Pasteurella multocida pm1980

Molecule	MIC (Pasteurella multocida [1]; AL435, 24 h) [µg/mL]	MIC (Pasteurella multocida [2]; pm0527, 24 h) [µg/mL]	MIC (Pasteurella multocida [3]; pm0527, 24 h) [µg/mL]	Ratio (Pasteurella multocida [4])	MIC (Pasteurella multocida [5]; pm1980, 24 h) [µg/mL]	MIC (Pasteurella multocida [6]; pm1980, 24 h) [µg/mL]	Ratio (Pasteurella multocida [7])	MIC (Pasteurella multocida [1]) [µg/mL]	MIC (Pasteurella multocida [2]) [µg/mL]	MIC (Pasteurella multocida [3]) [µg/mL]	MIC (Pasteurella multocida [5]) [µg/mL]	MIC (Pasteurella multocida [6]) [µg/mL]
CN(C)c1ccc(C(=C2C=CC(=[N+](C)C)C=C2)c2ccc(N(C)C)cc2)cc1.[Cl-] [GENTIAN VIOLET]	12.5	3.12	6.25	4	12.5	12.5	1					
Nc1ccc(S(=O)(=O)Nc2nccs2)cc1 [SULFATHIAZOLE]	2500 (≈ 9790 µM)	625 (≈ 2450 µM)	1250 (≈ 4900 µM)	4	2500 (≈ 9790 µM)	2500 (≈ 9790 µM)	1					
GENTAMICIN				4			0.5	20	5	20	40	40
CC(C)(O/N=C(\C(=O)N[C@@H]1C(=O)N2C(C(=O)[O-])=C(C[n+]3ccccc3)CS[C@H]12)c1csc(N)n1)C(=O)O [CEFTAZIDIME]	250 (≈ 457 µM)	15.6 (≈ 28.5 µM)	7.8 (≈ 14.3 µM)	16	31.2 (≈ 57.1 µM)	31.2 (≈ 57.1 µM)	8					
CC[n+]1c(-c2ccccc2)c2cc(N)ccc2c2ccc(N)cc21.[Br-] [HOMIDIUM BROMIDE]	20	5	10	4	10	10	2					
CN[C@H](CC(C)C)C(=O)N[C@H]1C(=O)N[C@@H](CC(N)=O)C(=O)N[C@H]2C(=O)N[C@H]3C(=O)N[C@H](C(=O)N[C@H](C(=O)O)c4cc(O)cc(O)c4-c4cc3ccc4O)[C@H](O)c3ccc(c(Cl)c3)Oc3cc2cc(c3O[C@@H]2O[C@H](CO)[C@@H](O)[C@H](O)[C@H]2O[C@H]2C[C@](C)(N)[C@H](O)[C@H](C)O2)Oc2ccc(cc2Cl)[C@H]1O [VANCOMYCIN]	1000 (≈ 690 µM)	125 (≈ 86.3 µM)	250 (≈ 173 µM)	8	250 (≈ 173 µM)	250 (≈ 173 µM)	4					
CO[C@@H]1[C@@H](OC(N)=O)[C@@H](O)[C@H](Oc2ccc3c(O)c(NC(=O)c4ccc(O)c(CC=C(C)C)c4)c(=O)oc3c2C)OC1(C)C [NOVOBIOCIN]	40 (≈ 65.3 µM)	2.5 (≈ 4.08 µM)	40 (≈ 65.3 µM)	16	20 (≈ 32.6 µM)	40 (≈ 65.3 µM)	2					
C[C@@H]1C[C@@H]([C@H](O)CC2CC(=O)NC(=O)C2)C(=O)[C@@H](C)C1 [CYCLOHEXIMIDE]	500 (≈ 1780 µM)	250 (≈ 889 µM)	500 (≈ 1780 µM)	2	500 (≈ 1780 µM)	500 (≈ 1780 µM)	1					
O=C(N[C@H](CO)[C@H](O)c1ccc([N+](=O)[O-])cc1)C(Cl)Cl [CHLORAMPHENICOL]	1 (≈ 3.09 µM)	0.5 (≈ 1.55 µM)	1 (≈ 3.09 µM)	2	1 (≈ 3.09 µM)	1 (≈ 3.09 µM)	1					
O[C@@H](CS)[C@@H](O)CS [DITHIOTHREITOL]	4000 (≈ 25900 µM)	2000 (≈ 13000 µM)	2000 (≈ 13000 µM)	2	2000 (≈ 13000 µM)	4000 (≈ 25900 µM)	2					
CCCCc1ccc(C(=O)O)nc1 [FUSARIC ACID]	100 (≈ 558 µM)	50 (≈ 279 µM)	50 (≈ 279 µM)	2	50 (≈ 279 µM)	100 (≈ 558 µM)	2					
POLYMYXIN B				4			1	12.5	3.12	6.25	12.5	6.25
CCC[C@@H]1C[C@@H](C(=O)N[C@@H]([C@H]2O[C@H](SC)[C@H](O)[C@@H](O)[C@H]2O)[C@@H](C)O)N(C)C1 [LINCOMYCIN]	100 (≈ 246 µM)	25 (≈ 61.5 µM)	25 (≈ 61.5 µM)	4	100 (≈ 246 µM)	50 (≈ 123 µM)	1					
SPIRAMYCIN				2			1	25	12.5	25	25	25
NEOMYCIN SULFATE				1			0.125	125	125	125	1000	500
O=P1(N(CCCl)CCCl)NCCCO1 (centres undefined) [CYCLOPHOSPHAMIDE ANHYDROUS]	4000 (≈ 15300 µM)	4000 (≈ 15300 µM)	2000 (≈ 7660 µM)	1	2000 (≈ 7660 µM)	2000 (≈ 7660 µM)	2					
CC[C@H]1OC(=O)[C@H](C)[C@@H](O[C@H]2C[C@@](C)(OC)[C@@H](O)[C@H](C)O2)[C@H](C)[C@@H](O[C@@H]2O[C@H](C)C[C@H](N(C)C)[C@H]2O)[C@](C)(O)C[C@@H](C)C(=O)[C@H](C)[C@@H](O)[C@]1(C)O [ERYTHROMYCIN]	3.8 (≈ 5.18 µM)	0.47 (≈ 0.64 µM)	1.88 (≈ 2.56 µM)	8	1.88 (≈ 2.56 µM)	1.88 (≈ 2.56 µM)	2					
COc1cc(Cc2cnc(N)nc2N)cc(OC)c1OC [TRIMETHOPRIM]	8 (≈ 27.6 µM)	0.25 (≈ 0.861 µM)	0.5 (≈ 1.72 µM)	32	2 (≈ 6.89 µM)	1 (≈ 3.44 µM)	4					
C[C@H](CCC(=O)O)[C@H]1CC[C@H]2[C@@H]3CC[C@@H]4C[C@H](O)CC[C@]4(C)[C@H]3C[C@H](O)[C@]12C [DEOXYCHOLIC ACID]	625 (≈ 1590 µM)	625 (≈ 1590 µM)	312 (≈ 796 µM)	1	625 (≈ 1590 µM)	625 (≈ 1590 µM)	1					
CCn1cc(C(=O)O)c(=O)c2ccc(C)nc21 [NALIDIXIC ACID]	25 (≈ 108 µM)	25 (≈ 108 µM)	25 (≈ 108 µM)	1	25 (≈ 108 µM)	12.5 (≈ 53.8 µM)	1					
CN(C)c1ccc2cc3ccc(N(C)C)cc3nc2c1 [ACRIDINE ORANGE]	30 (≈ 113 µM)	0.234 (≈ 0.882 µM)	15 (≈ 56.5 µM)	128	30 (≈ 113 µM)	30 (≈ 113 µM)	1					
CO[C@H]1/C=C/O[C@@]2(C)Oc3c(C)c(O)c4c(O)c(c(/C=N/N5CCN(C)CC5)c(O)c4c3C2=O)NC(=O)/C(C)=C\C=C\[C@H](C)[C@H](O)[C@@H](C)[C@@H](O)[C@@H](C)[C@H](OC(C)=O)[C@@H]1C [RIFAMPIN]	50 (≈ 60.8 µM)	0.1 (≈ 0.122 µM)	0.2 (≈ 0.243 µM)	512	0.78 (≈ 0.948 µM)	0.78 (≈ 0.948 µM)	64					
